In patent publication EP4631501A1, “COMBINATIONS OF A CALCIUM HOMEOSTASIS DISRUPTOR WITH A DEATH RECEPTOR 5 AGONIST FOR TREATING CANCER” (Stichting Het Nederlands Kanker Instituut- Antoni van …, priority 2024, dated 2025):
Read-outs that look alike come from different tables or passages of the source.

Columns and labels:
[1] = system: A549 cells; test: Colony formation assay in SLC25A23 shRNA knock-down A549 cells treated with senescence inducers; assay type: cell-based; details: three independent shRNAs targeting SLC25A23
[2] = system: DR5; test: Western blot of DR5 induction in A549 cells treated with salinomycin and NAC; assay type: cell-based; details: salinomycin plus NAC
Text: (Fig. 3A). This notion was also supported by the western blot analysis. We observed that an upregulation of death receptor 5 (DR5), cleavage of caspase 3 and 8 (cl-CASP8 and 3), indicates extrinsic apoptosis activation. […] In Figure 3B, we noticed the upregulation of cJUn and DR5 by salinomycin treatment. This has been denoted by the past studies showing salinomycin could modulate autophagy to induce ROS (Verdoodt 2012). The elevated ROS led to cJun upregulation and NF-kB activation to increase the DR5 expression (Fu 2010). To validated molecular mechanism in our senescent models, we knocked-down cJun, NF-kB2 and Nrf2 using shRNA. […]
• Figure 1: CRISPR-based senolytic screen identifies SLC25A23 as a senolytic target • (A). […] Changes in library representation after 10 days doxycycline treatment were determined by Illumina deep-sequencing. • (B). gRNAs prioritized for further analysis were selected by the fold depletion of abundance in S2 and S1 samples compared with that in P2 and P2 samples, using methods as described previously (Evers et al., Nat Biotech, 2016). […] Cell viability was assessed by colony formation assay in the A549 cells stably infected with doxycycline-inducible Cas9 (iCas9) lentiviral vectors and a guide RNAs target SLC25A23 lentiviral vector. […] Cell viability was assessed by colony formation assay in the A549 and MDA-MB-231 cells. […]

[3] = system: A549 lung cancer cells; assay type: in vivo, BALB/c nude mice
Text: (§1) In order to obtain a synergistic effect, we combed low doses of DR5 agonist antibody either IgG-conatumumab or IgA-conatumumab with salinomycin, as senolytic cocktails. […] To test this senolytic cocktail in vivo, we used both immunodeficient and immunocompetent mouse models. We engrafted A549 cells into immunodeficient nude mice and Hepa1-6 liver cancer cells in syngeneic immunocompetent C57BL/6 mice. After tumors were established, we treated with alisertib to induce senescence and combinations of the two senolytic drugs.
(§2) Schematic of iCas9-associated senolytic CRISPR screen workflow. A549 cells were infected with a doxycycline-inducible Cas9 (iCas9) lentiviral vector. Next, Brunello lentiviral whole genome-wide gRNA collection virus was introduced to the A549-iCas9 cells. […] Changes in library representation after 10 days doxycycline treatment were determined by Illumina deep-sequencing. • (B). gRNAs prioritized for further analysis were selected by the fold depletion of abundance in S2 and S1 samples compared with that in P2 and P2 samples, using methods as described previously (Evers et al., Nat Biotech, 2016). […] Cell viability was assessed by colony formation assay in the A549 cells stably infected with doxycycline-inducible Cas9 (iCas9) lentiviral vectors and a guide RNAs target SLC25A23 lentiviral vector.

[4] = system: Hepa1-6 liver cancer cells; assay type: in vivo, C57BL/6 mice
Text: as §1, §2

[5] = system: alisertib-induced senescent and proliferating A549; test: Western blot of cell death biomarkers in alisertib-induced senescent and proliferating A549
[6] = system: senescent cells; test: Cell morphology imaging of senescent cells treated with salinomycin
[7] = system: lung (A549), breast (MDA-MB-231, MCF-7, T47D) and liver (SK-Hep1) cancer models; test: Colony formation assay, senescent versus proliferating cancer cells treated with salinomycin

`COc1ccc2c(c1)C1(CC1c1ccc3c(C=Cc4ccc(CN5CC(C)OC(C)C5)cc4)n[nH]c3c1)C(=O)N2` (stereo not shown) [CFI-400945] was tested, and the “sensitivity of SLC25A23 suppressed cells to senescence inducers” value (“sensitivity of SLC25A23 suppressed cells” below) [1] was “highly sensitive”.

In the case of `CC(=O)N[C@@H](CS)C(=O)O` [N-Acetyl Cysteine (NAC), N-Acetyl Cysteine], the “DR5 upregulation in salinomycin treated cells” value [2] is reported as “could reserve the DR5 upregulation”.

With `COc1cc(Nc2ncc3c(n2)-c2ccc(Cl)cc2C(c2c(F)cccc2OC)=NC3)ccc1C(=O)O` [alisertib] the tumor growth ([3]; A549 in nude mice, 25 mg kg-1 alisertib, 1.5 mg kg-1 salinomycin, 5 µg per dose conatumumab (2.5 µg in three-way combination)) was “limited tumor growth inhibition”, the tumor growth ([4]; Hepa1-6 in C57BL/6 mice, 25 mg kg-1 alisertib, 1.5 mg kg-1 salinomycin, 0.3 µg per dose MD5-1) was “limited tumor growth inhibition” and the “sensitivity of SLC25A23 suppressed cells” value [1] was “highly sensitive”.

With `COc1cc([C@@H]2c3cc4c(cc3[C@@H](O[C@@H]3O[C@@H]5CO[C@@H](C)O[C@H]5[C@H](O)[C@H]3O)[C@H]3COC(=O)[C@H]23)OCO4)cc(OC)c1O` [etoposide] the “sensitivity of SLC25A23 suppressed cells” value [1] was “highly sensitive”.

For `CC[C@@H](C(=O)[C@@H](C)[C@@H](O)[C@H](C)[C@@H]1O[C@@H]([C@@H](CC)C(=O)O)CC[C@@H]1C)[C@H]1O[C@]2(C=C[C@@H](O)[C@]3(CC[C@@](C)([C@H]4CC[C@](O)(CC)[C@H](C)O4)O3)O2)[C@H](C)C[C@@H]1C` [salinomycin], the “Microtubule-associated protein 1A/1B-light chain 3 (LC3)” value [5] was “upregulation”, the cJUn [5] was “upregulation” and the “caspase 3 and 8 (cl-CASP8 and 3)” value [5] was “cleavage”. The “cleaved Gasdermin-D (cl-GSDMD)” value [5] was “upregulation”, the “death receptor 5 (DR5)” value [5] was “upregulation” and the “mixed lineage kinase domain-like protein (MLKL) phosphorylation” value [5] was “increased phosphorylation”. For the same compound, the tumor growth ([3]; mouse, in vivo) was “limited tumor growth inhibition”, the tumor growth ([4]; mouse, in vivo) was “limited tumor growth inhibition” and the “cell death phenotype under the microscope” value [6] was “PANoptosis phenotype”. The “killing of senescent cells versus proliferating cells” value [7] was “preferential killing of senescent cells over proliferating cells”.
